The text below walks through data of ChEMBL document CHEMBL4706763, “Targeting IRAK1 for Degradation with PROTACs” (ACS Med Chem Lett, 2021).

Assay [1] addresses T1, von Hippel-Lindau disease tumor suppressor/Interleukin-1 receptor-associated kinase 1 (Homo sapiens, UniProt P51617+P40337). In words: Protac activity at VHL/IRAK1 in HEK293T cells assessed as induction of IRAK1 degradation at 10 uM measured after 24 hrs by Western blot analysis relative to control. The assay is classed as cell-based.
Target sequence in this assay (P40337 whole entry, looked up): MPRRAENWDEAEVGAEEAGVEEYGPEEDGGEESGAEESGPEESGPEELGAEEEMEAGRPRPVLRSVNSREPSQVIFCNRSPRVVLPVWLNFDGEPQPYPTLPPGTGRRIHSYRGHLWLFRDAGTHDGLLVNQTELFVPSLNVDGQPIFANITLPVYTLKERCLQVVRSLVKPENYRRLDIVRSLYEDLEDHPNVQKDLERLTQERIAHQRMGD
Target sequence in this assay (P51617 whole entry, looked up): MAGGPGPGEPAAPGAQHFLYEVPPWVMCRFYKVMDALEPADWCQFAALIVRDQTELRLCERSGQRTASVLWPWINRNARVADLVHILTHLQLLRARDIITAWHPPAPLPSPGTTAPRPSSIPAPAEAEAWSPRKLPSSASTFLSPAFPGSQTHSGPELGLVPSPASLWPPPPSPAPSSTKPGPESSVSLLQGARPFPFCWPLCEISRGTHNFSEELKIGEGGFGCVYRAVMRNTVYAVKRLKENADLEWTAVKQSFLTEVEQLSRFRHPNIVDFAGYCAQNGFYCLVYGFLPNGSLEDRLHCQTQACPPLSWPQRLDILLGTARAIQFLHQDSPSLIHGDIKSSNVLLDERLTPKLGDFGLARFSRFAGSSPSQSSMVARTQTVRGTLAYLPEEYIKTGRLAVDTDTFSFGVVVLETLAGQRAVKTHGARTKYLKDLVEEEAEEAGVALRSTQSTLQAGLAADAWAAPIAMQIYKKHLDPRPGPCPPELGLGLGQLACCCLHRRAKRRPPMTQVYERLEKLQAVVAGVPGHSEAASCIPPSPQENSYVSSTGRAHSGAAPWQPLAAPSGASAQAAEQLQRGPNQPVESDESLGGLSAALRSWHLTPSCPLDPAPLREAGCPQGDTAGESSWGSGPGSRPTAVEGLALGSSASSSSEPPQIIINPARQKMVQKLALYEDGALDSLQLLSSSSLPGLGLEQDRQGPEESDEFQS
Assay [2] concerns the target T1, von Hippel-Lindau disease tumor suppressor/Interleukin-1 receptor-associated kinase 1. In words: Protac activity at VHL/IRAK1 in HEK293T cells assessed as induction of IRAK1 degradation measured after 24 hrs by Western blot analysis. It counts as cell-based.
Target sequence in this assay (P51617 whole entry): as the sequence (P51617 whole entry, looked up) above
Target sequence in this assay (P40337 whole entry): as the sequence (P40337 whole entry, looked up) above

As to `COc1cc(N2CCC(OCC(=O)N[C@H](C(=O)N3C[C@H](O)C[C@H]3C(=O)NCc3ccc(-c4scnc4C)cc3F)C(C)(C)C)CC2)ccc1NC(=O)c1cccc(-c2ccn[nH]2)n1`, the Emax in assay [1] amounted to 96%. In addition, the DC50 in assay [2] was 13 nM. The matching figures for `COc1cc(N2CCC(OCC(=O)N[C@H](C(=O)N3C[C@H](O)C[C@H]3C(=O)N[C@@H](C)c3ccc(-c4scnc4C)cc3)C(C)(C)C)CC2)ccc1NC(=O)c1cccc(-c2ccn[nH]2)n1`: 96% and 3 nM. The matching figures for `COc1cc(N2CCN(C(=O)OCC(=O)N[C@H](C(=O)N3C[C@H](O)C[C@H]3C(=O)N[C@@H](C)c3ccc(-c4scnc4C)cc3)C(C)(C)C)CC2)ccc1NC(=O)c1cccc(-c2ccn[nH]2)n1`: 90% and 9 nM. Take `COc1cc(N2CC[C@@H](OCC(=O)N[C@H](C(=O)N3C[C@H](O)C[C@H]3C(=O)N[C@@H](C)c3ccc(-c4scnc4C)cc3)C(C)(C)C)C[C@@H]2C)ccc1NC(=O)c1cccc(-c2ccn[nH]2)n1`: in assay [1], the Emax was determined as 94%. Further, the DC50 in assay [2] stood at 13 nM. On to `COc1cc(N2CCC(OCC(=O)N[C@H](C(=O)N3C[C@H](O)C[C@H]3C(=O)NCc3ccc(-c4scnc4C)cc3)C(C)(C)C)CC2)ccc1NC(=O)c1cccc(-c2ccn[nH]2)n1`, for which, in assay [1], the Emax stood at 95%. Further, the DC50 in assay [2] turned out to be 16 nM.

Turning to `COc1cc(N2CC[C@@H](OCC(=O)N[C@H](C(=O)N3C[C@H](O)C[C@H]3C(=O)N[C@@H](C)c3ccc(-c4scnc4C)cc3)C(C)(C)C)[C@H](C)C2)ccc1NC(=O)c1cccc(-c2ccn[nH]2)n1`, in assay [1], the Emax came out at 96%. Moreover, the DC50 in assay [2] was found to be 21 nM.

Consider `COc1cc(N2CCN(C(=O)OCC(=O)N[C@H](C(=O)N3C[C@H](O)C[C@H]3C(=O)NCc3ccc(-c4scnc4C)cc3)C(C)(C)C)CC2)ccc1NC(=O)c1cccc(-c2ccn[nH]2)n1`, for which the maximal response (Emax) in assay [1] is 97%. Besides, in assay [2], the DC50 stood at 16 nM. As to `COc1cc(N2CC[C@H](OCC(=O)N[C@H](C(=O)N3C[C@H](O)C[C@H]3C(=O)N[C@@H](C)c3ccc(-c4scnc4C)cc3)C(C)(C)C)[C@@H](C)C2)ccc1NC(=O)c1cccc(-c2ccn[nH]2)n1`, the Emax in assay [1] came to 95%.
